Laboratory results: US20250270200A1, “CTPS1 INHIBITORS AND USES THEREOF” (Nimbus Clotho, Inc., priority 2022, published 2025)
Several values for one entry are separate records, joined by “and”; a condition that tells them apart may be missing. Equal entries are not always repeated.

Molecular target: T1, human CTPS1 (Homo sapiens, UniProt P17812)
T1 sequence (P17812 1-591): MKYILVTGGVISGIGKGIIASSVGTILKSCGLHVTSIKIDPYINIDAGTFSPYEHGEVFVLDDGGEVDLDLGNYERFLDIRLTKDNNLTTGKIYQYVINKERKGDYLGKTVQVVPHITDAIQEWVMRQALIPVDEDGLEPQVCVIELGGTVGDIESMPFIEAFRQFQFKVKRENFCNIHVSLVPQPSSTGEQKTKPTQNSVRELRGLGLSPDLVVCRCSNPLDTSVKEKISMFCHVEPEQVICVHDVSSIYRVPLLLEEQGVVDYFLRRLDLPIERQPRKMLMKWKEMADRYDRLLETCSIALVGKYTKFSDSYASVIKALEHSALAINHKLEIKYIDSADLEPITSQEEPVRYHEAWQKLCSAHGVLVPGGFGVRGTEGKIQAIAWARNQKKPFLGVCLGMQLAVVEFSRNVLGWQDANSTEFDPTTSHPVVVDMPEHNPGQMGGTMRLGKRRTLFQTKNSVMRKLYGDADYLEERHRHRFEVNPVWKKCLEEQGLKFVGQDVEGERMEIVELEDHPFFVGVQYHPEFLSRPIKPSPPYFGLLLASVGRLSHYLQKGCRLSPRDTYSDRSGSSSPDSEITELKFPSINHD
Test: ADP-Glo assay, human CTPS1 enzyme inhibition
Type: biochemical
Conditions: wild-type human CTPS1 25 nM; ATP 120 μM, UTP 160 μM, GTP 60 μM, L-glutamine 100 μM; 25 degrees C.; read-out: ADP-Glo_WT_hCTPS1—25 nM_IC50 (IC50)
Procedure, shortened: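 Full-length tagged human CTPS1 (25 nM) pre-incubated 10 min at 25° C with compound, then 10 min with ATP (120 μM) and UTP (160 μM); reaction started with L-glutamine (100 μM) and GTP (60 μM), 1% DMSO, in HEPES pH 7.4, 10 mM Mg2+, 5 mM KCl, 2 mM DTT. Run within linear phase at 25° C; ADP measured by ADP-Glo luminescence.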

IC50 | Structure (SMILES)
5 to 25 nM | O=C(N[C@H](c1nccc(NS(=O)(=O)C2CC2)c1F)[C@@H]1CCOC1)c1ncc(-c2cnn3ccc(Cl)cc23)s1 (single isomer, unassigned) [II-6]
5 to 25 nM | O=C(N[C@@H](c1nccc(NS(=O)(=O)C2CC2)c1F)[C@H]1CCOC1)c1ncc(-c2cnn3ccc(Cl)cc23)s1 (single isomer, unassigned) [II-5]

Same assay, conditions: wild-type human CTPS1, 25 nM enzyme; ADP-Glo; read-out: ADP-Glo_WT_hCTPS1—25 nM_IC50 (IC50)

Structure (SMILES) | IC50
CCOc1cncc(-c2cnc(C(=O)N[C@H](c3cccc(NS(=O)(=O)C(F)F)c3)C3CCOCC3)s2)n1 [I-194, (S)-N-((3-((difluoromethyl)sulfonamido)phenyl)(tetrahydro-2H-pyran-4-yl)methyl)-5-(6-ethoxypyrazin-2-yl)thiazole-2-] | 5 to 25 nM
CCOc1cncc(-c2cnc(C(=O)N[C@@H](CN3CCN(C4CC4)CC3)c3cccc(NS(=O)(=O)C(F)F)c3)s2)n1 (single isomer, unassigned) [I-41] | 5 to 25 nM
CCOc1cncc(-c2cnc(C(=O)N[C@H](CN3CC[C@](C)(O)C3)c3cc(NS(=O)(=O)C4CC4)ccn3)s2)n1 [I-131, N-((R)-1-(4-(cyclopropanesulfonamido)pyridin-2-yl)-2-((S)-3-hydroxy-3-methylpyrrolidin-1-yl)ethyl)-5-(6-ethoxypyrazin-2-yl)thiazole-2-carboxamide] | 5 to 25 nM
CCOc1cncc(-c2cnc(C(=O)N[C@@H](CN3C[C@H]4CC[C@@H]3C4)c3cccc(NS(=O)(=O)C(F)F)c3)s2)n1 [I-210, N-((R)-2-((1R,4S)-2-azabicyclo[2.2.1]heptan-2-yl)-1-(3-((difluoromethyl)sulfonamido)phenyl)ethyl)-5-(6-ethoxypyrazin-2-yl)thiazole-2-carboxamide] | 5 to 25 nM
CCOc1cncc(-c2cnc(C(=O)N[C@H](c3cc(NS(=O)(=O)C4CC4)ccn3)[C@H](C)CN3CCCCC3)s2)n1 (stereo in doubt) [I-53, N-((1S,2R)-1-(4-(cyclopropanesulfonamido)pyridin-2-yl)-2-methyl-3-(piperidin-1-yl)propyl)-5-(6-ethoxypyrazin-2-yl)thiazole-2-carboxamide] | 5 to 25 nM
O=C(N[C@H](CN1CCCC1)c1cccc(NS(=O)(=O)C(F)F)c1)c1ncc(-c2cnn3ccc(Cl)cc23)s1 [I-220, (S)-5-(5-chloropyrazolo[1,5-a]pyridin-3-yl)-N-(1-(3-((difluoromethyl)sulfonamido)phenyl)-2-(pyrrolidin-1-yl)ethyl)thiazole-2-carboxamide] | 25 to 50 nM
O=C(N[C@H](c1ccnc(NS(=O)(=O)C2CC2)n1)[C@H]1CCOC1)c1ncc(-c2cnn3ccc(Cl)cc23)s1 [I-260, 5-(5-chloropyrazolo[1,5-a]pyridin-3-yl)-N-((S)-(2-(cyclopropanesulfonamido)pyrimidin-4-yl)((R)-tetrahydrofuran-3-yl)methyl)thiazole-2-carboxamide] | 5 to 25 nM
CCOc1cncc(-c2cnc(C(=O)N[C@@H](CN3[C@@H]4CC[C@H]3COC4)c3cc(NS(=O)(=O)C4CC4)ccn3)s2)n1 (single isomer, unassigned) [I-36] | 50 to 100 nM
CCOc1cncc(-c2cnc(C(=O)N[C@@H](CO[C@H]3CCOC3)c3cc(NS(=O)(=O)C4CC4)ccn3)s2)n1 [I-238, N-((R)-1-(4-(cyclopropanesulfonamido)pyridin-2-yl)-2-(((S)-tetrahydrofuran-3-yl)oxy)ethyl)-5-(6-ethoxypyrazin-2-yl)thiazole-2-carboxamide] | 25 to 50 nM
CCOc1cncc(-c2cnc(C(=O)N[C@H](Cn3nccn3)c3cccc(NS(=O)(=O)C(F)F)c3)s2)n1 [I-216, (S)-N-(1-(3-((difluoromethyl)sulfonamido)phenyl)-2-(2H-1,2,3-triazol-2-yl)ethyl)-5-(6-ethoxypyrazin-2-yl)thiazole-2-carboxamide] | ≤ 5 nM
CCOc1cncc(-c2cnc(C(=O)N[C@@H](c3cc(NS(=O)(=O)C4CC4)ccn3)[C@@H]3CCCN3C)s2)n1 [I-117, N-((R)-(4-(cyclopropanesulfonamido)pyridin-2-yl)((S)-1-methylpyrrolidin-2-yl)methyl)-5-(6-ethoxypyrazin-2-yl)thiazole-2-carboxamide] | 5 to 25 nM
COC[C@H](NC(=O)c1ccc(-c2cnn3ccc(Cl)cc23)cc1F)c1cc(NS(=O)(=O)C2CC2)ccn1 [I-284, (R)-4-(5-chloropyrazolo[1,5-a]pyridin-3-yl)-N-(1-(4-(cyclopropanesulfonamido)pyridin-2-yl)-2-methoxyethyl)-2-fluorobenzamide] | > 100 nM
CCOc1cncc(-c2cnc(C(=O)N[C@@H](Cn3nccn3)c3cccc(NS(=O)(=O)C(F)F)c3)s2)n1 [I-217, (R)-N-(1-(3-((difluoromethyl)sulfonamido)phenyl)-2-(2H-1,2,3-triazol-2-yl)ethyl)-5-(6-ethoxypyrazin-2-yl)thiazole-2-carboxamide] | 5 to 25 nM
CCOc1cncc(-c2cnc(C(=O)N[C@@H](CF)c3cc(NS(=O)(=O)C4CC4)ccn3)s2)n1 [I-160, (R)-N-(1-(4-(cyclopropanesulfonamido)pyridin-2-yl)-2-fluoroethyl)-5-(6-ethoxypyrazin-2-yl)thiazole-2-carboxamide] | 5 to 25 nM
CCOc1cncc(-c2cnc(C(=O)N[C@@H](c3cc(NS(=O)(=O)C4CC4)ccn3)[C@H]3CCCN3C)s2)n1 [I-118, N-((R)-(4-(cyclopropanesulfonamido)pyridin-2-yl)((R)-1-methylpyrrolidin-2-yl)methyl)-5-(6-ethoxypyrazin-2-yl)thiazole-2-carboxamide] | 5 to 25 nM

The next lines start with the values.

IC50 | Structure (SMILES)
5 to 25 nM | CCOc1cncc(-c2cnc(C(=O)N[C@@H](c3cccc(NS(=O)(=O)C(F)F)c3)[C@H]3COCCO3)s2)n1 [I-201, N-((S)-(3-((difluoromethyl)sulfonamido)phenyl)((S)-1,4-dioxan-2-yl)methyl)-5-(6-ethoxypyrazin-2-yl)thiazole-2-carboxamide]
50 to 100 nM | CCOc1cncc(-c2cnc(C(=O)N[C@H](c3cc(NS(=O)(=O)C4CC4)ccn3)[C@H](C)N3C[C@H]4C[C@@H]3CO4)s2)n1 [I-166, N-((1S,2S)-2-((1R,4R)-2-oxa-5-azabicyclo[2.2.1]heptan-5-yl)-1-(4-(cyclopropanesulfonamido)pyridin-2-yl)propyl)-5-(6-ethoxypyrazin-2-yl)thiazole-2-carboxamide]
> 100 nM | CCOc1cncc(-c2cnc(C(=O)N[C@H](C[C@@H]3CCCCN3C(C)C)c3cc(NS(=O)(=O)C4CC4)ccn3)s2)n1 (single isomer, unassigned) [I-29]
5 to 25 nM | CCOc1cncc(-c2cnc(C(=O)N[C@@H](c3cc(NS(=O)(=O)C4CC4)ccn3)[C@@H]3CCN(C4CC4)C3)s2)n1 [I-114, N-((R)-(4-(cyclopropanesulfonamido)pyridin-2-yl)((R)-1-cyclopropylpyrrolidin-3-yl)methyl)-5-(6-ethoxypyrazin-2-yl)thiazole-2-carboxamide]
5 to 25 nM | COC[C@@H](NC(=O)c1ncc(-c2cnn3ccc(Cl)cc23)s1)c1cc(NS(=O)(=O)C2CC2)ccn1 (single isomer, unassigned) [I-4]
5 to 25 nM | CCOc1cncc(-c2cnc(C(=O)N[C@H](c3cc(NS(=O)(=O)C4CC4)ccn3)[C@@H]3CCN(C4CC4)C3)s2)n1 [I-113, N-((S)-(4-(cyclopropanesulfonamido)pyridin-2-yl)((R)-1-cyclopropylpyrrolidin-3-yl)methyl)-5-(6-ethoxypyrazin-2-yl)thiazole-2-carboxamide]
5 to 25 nM | CCOc1cncc(-c2cnc(C(=O)N[C@H](CN3CC4(CCC4)C3)c3cc(NS(=O)(=O)C4CC4)ccn3)s2)n1 [I-154, (R)-N-(1-(4-(cyclopropanesulfonamido)pyridin-2-yl)-2-(2-azaspiro[3.3]heptan-2-yl)ethyl)-5-(6-ethoxypyrazin-2-yl)thiazole-2-carboxamide]
25 to 50 nM and 5 to 25 nM | CCOc1cncc(-c2cnc(C(=O)N[C@H](c3cc(NS(=O)(=O)C4CC4)ccn3)[C@H]3CN(C)CCO3)s2)n1 [I-97, N-((R)-(4-(cyclopropanesulfonamido)pyridin-2-yl)((R)-4-methylmorpholin-2-yl)methyl)-5-(6-ethoxypyrazin-2-yl)thiazole-2-carboxamide]
25 to 50 nM | CCOc1cncc(-c2cnc(C(=O)N[C@@H](CO)c3cc(NS(=O)(=O)C4CC4)ccn3)s2)n1 [I-262, (R)-N-(1-(4-(cyclopropanesulfonamido)pyridin-2-yl)-2-hydroxyethyl)-5-(6-ethoxypyrazin-2-yl)thiazole-2-carboxamide]
5 to 25 nM | CCOc1cncc(-c2cnc(C(=O)N[C@H](c3cccc(NS(=O)(=O)C(F)F)c3)C(C)(C)O)s2)n1 [I-291, (R)-N-(1-(3-((difluoromethyl)sulfonamido)phenyl)-2-hydroxy-2-methylpropyl)-5-(6-ethoxypyrazin-2-yl)thiazole-2-carboxamide]
